# Results published in US8759400B2, “Histone deacetylase inhibitors for enhancing activity of antifungal agents” (MethylGene Inc., priority 2005, dated 2014).
# Where “and” joins values, the source holds several entries; their conditions need not be identical. Equal values may be shown once. Read-outs that look alike come from different tables or passages of the source. Marks after values point to notes of the source that are not given here.
# Experiments:
# [1] = system: Aspergillus terreus; assay: Clinical isolates of other fungal species, checkerboard; assay type: cell-based
# [2] = system: C. tropicalis; assay: Fungicidal activity (CFU counts); assay type: cell-based; details: voriconazole with Compound 4, data not shown
# [3] = system: Paecilomyces lilacinus; assay: Clinical isolates of other fungal species, checkerboard; assay type: cell-based
# [4] = system: Aspergillus spp.; assay: Clinical isolates, checkerboard, summary over 16 isolates; assay type: cell-based
# [5] = system: Histoplasma; assay: microbe, parasite or virus in culture; assay type: cell-based
# [6] = system: C. glabrata; assay: Post-antifungal effect (PAFE); assay type: cell-based
# Procedure: The post-antifungal effect (PAFE) is the time needed to achieve one log10 of cell growth after drug removal. One-two colonies are resuspended in 5 ml YPD. […] Cells are incubated at 30° C. overnight. In the morning, the optical density at 600 nm is read. Cells at A600 the closest but not surpassing 0.3 (early log-phase cells) are picked for further treatments as follows: […] Counts of CFU/ml are performed at time zero, before and after diluting the cells and at predetermined time points in order to determine the PAFE and the cidal potential of each drug combination (FIGS. 5-10).
# [7] = system: Fusarium sp.; assay: Clinical isolates of other fungal species, checkerboard; assay type: cell-based
# Procedure: To determine the synergy between Compound 4 and azoles against other fungal species, a series of clinical isolates (Micheal Rinaldi, University of Texas Health Science Center) was tested by the checkerboard method as described in Example 1.
# [8] = system: C. krusei; assay: Clinical isolates, CLSI M27-A2 broth microdilution and checkerboard; assay type: cell-based; details: for minimum Compound 4 concentration at which Compound 4 alone inhibited growth (number in brackets): C. krusei clinical isolates
# [9] = system: C. parapsilosis; assay: Fungicidal activity (CFU counts); assay type: cell-based; details: voriconazole with Compound 4, data not shown
# [10] = system: Candida spp.; assay: Clinical isolates, checkerboard, summary over 45 isolates; assay type: cell-based; details: for isolates with synergy / isolates tested: 45 clinical isolates of Candida spp.
# [11] = system: C. krusei (14243); assay: MIC and checkerboard synergy with azoles; assay type: cell-based, Candida krusei
# Procedure: (§1) For susceptibility studies, overnight cultures of both Candida species are diluted 1:100 in YEPD medium, grown for 4 h at 30° C., counted in a hemocytometer, then diluted to a concentration of 5×10^3 cells/ml. […] Synergy, determined by the checkerboard method, is defined as a decrease in MIC of antifungal agent that is more than additive of the MIC of the histone deacetylase inhibitor and the antifungal agent alone.
# [12] = system: A. niger; assay: Clinical isolates, CLSI M38-A broth microdilution and checkerboard; assay type: cell-based
# [13] = system: C. albicans (ATCC 90028); assay: MIC80 and checkerboard synergy with antifungal agents; assay type: cell-based, Candida albicans; details: for Conc. Cpd 4 for 4-fold decrease: C. albicans; for Cpd 4 Conc for 4-fold synergy: C. albicans (90028)
# [14] = system: Coccidioides immitis; assay: microbe, parasite or virus in culture; assay type: cell-based
# [15] = system: A. fumigatus ATCC 1022; assay: MIC80 and checkerboard synergy, broth microdilution (NCCLS M38-A); assay type: cell-based, Aspergillus fumigatus
# [16] = system: C. parapsilosis (22019); assay: MIC and checkerboard synergy with azoles; assay type: cell-based, Candida parapsilosis
# Procedure: as §1
# [17] = system: C. glabrata (ATCC 90030); assay type: cell-based
# [18] = system: Trichosporon; assay: Clinical isolates of other fungal species, checkerboard; assay type: cell-based
# [19] = system: C. tropicalis; assay: Clinical isolates, CLSI M27-A2 broth microdilution and checkerboard; assay type: cell-based
# [20] = system: C. lusitaniae; assay: as above; assay type: cell-based
# [21] = system: Pseudallescheria boydii; assay: Clinical isolates of other fungal species, checkerboard; assay type: cell-based
# [22] = system: C. tropicalis (750); assay: MIC and checkerboard synergy with azoles; assay type: cell-based, Candida tropicalis
# Procedure: as §1
# [23] = system: HDAC; assay: HDAC inhibitory activity in fungal protoplasts (Fluor-de-Lys); assay type: cell-based, Candida glabrata; details: C. glabrata protoplasts
# Procedure: (§2) Protoplasts of C. albicans and C. glabrata are prepared by the […] method of Franzusoff et al.
# [24] = system: HDAC; assay: as above; assay type: cell-based, Candida albicans; details: C. albicans protoplasts
# Procedure: as §2
# [25] = system: Aspergillus fumigatus; assay: Clinical isolates of other fungal species, checkerboard; assay type: cell-based
# [26] = Paecilomyces lilacinus, *Synergy occurs at ½ MIC of Cpd 4
# [27] = Aspergillus spp. clinical isolates
# [28] = Trichosporon, **MIC of azole <0.06 μg/ml, too low to determine synergistic concentration
smiles,measurement,setting,value
O=C(Cc1ccc(CCCCc2ccccc2)cc1)NO [Cpd 4],Synergy with Cpd 4 (strains showing synergy/total strains tested) Itraconazole,[1]; Aspergillus terreus,3/3
same,Synergy with Cpd 4 (strains showing synergy/total strains tested) Voriconazole,[1]; Aspergillus terreus,3/3
same,MIC,"[1]; Aspergillus terreus clinical isolates, read-out: Cpd 4 MIC",> 8 µg/mL
same,increase in voriconazole fungicidal activity,[2],1.1-1.2 fold
same,Synergy with Cpd 4 (strains showing synergy/total strains tested) Itraconazole,[3]; [26],2/3*
same,Synergy with Cpd 4 (strains showing synergy/total strains tested) Voriconazole,[3]; [26],2/3*
same,MIC,"[3]; Purpureocillium lilacinum, Paecilomyces lilacinus clinical isolates, read-out: Cpd 4 MIC",4 µg/mL
same,Compound 4 concentrations required for 4-fold reductions in azole MIC,[4]; [27],1 to 8 µg/mL
same,in vitro antagonism of Compound 4-azole combination,[4]; [27],none of the isolates tested
same,number of isolates with additivity,"[4]; Compound 4 with VOR and ITR, of 16 Aspergillus spp. isolates",4
same,number of isolates with synergy,"[4]; Compound 4 with both VOR and ITR, of 16 Aspergillus spp. isolates",11
same,Synergy with Cpd 4 (strains showing synergy/total strains tested) Itraconazole,[5],0/3
same,Synergy with Cpd 4 (strains showing synergy/total strains tested) Voriconazole,[5],0/3
same,MIC,[5]; read-out: Cpd 4 MIC,1 to 2 µg/mL
same,PAFE,"[6]; Compound 4 combined with voriconazole, FIGS. 5 and 6C",~1 h
same,PAFE,"[6]; itraconazole combined with Compound 4, FIG. 7",0.5 h
same,Synergy with Cpd 4 (strains showing synergy/total strains tested) Itraconazole,[7]; Fusarium sp.,1/3
same,MIC,"[7]; Fusarium sp. clinical isolates, read-out: Cpd 4 MIC",8 µg/mL
same,Synergy with Cpd 4 (strains showing synergy/total strains tested) Voriconazole,"[7]; Fusarium sp., *Synergy occurs at ½ MIC of Cpd 4",3/3*
same,FLU/Cpd 4 FIC interpretation,"[8]; Cpd 4 with fluconazole, C. krusei clinical isolates and QC 6258",(S) (S = synergy)
same,VOR/Cpd 4 FIC,"[8]; Cpd 4 with voriconazole, C. krusei clinical isolates and QC 6258",0.6 and 0.5 and 0.3
same,minimum Compound 4 concentration at which Compound 4 alone inhibited growth (number in brackets),[8]; FLU checkerboard,0.5 µg/mL
same,minimum Compound 4 concentration at which Compound 4 alone inhibited growth (number in brackets),[8]; VOR checkerboard,0.25 µg/mL and 0.5 µg/mL
same,increase in voriconazole fungicidal activity,[9],1.1-1.2 fold
same,in vitro antagonism of Compound 4-azole combination,[10]; Candida spp. clinical isolates,none of the isolates tested
same,isolates with synergy / isolates tested,[10]; Compound 4 with FLU,34/45
same,isolates with synergy / isolates tested,[10]; Compound 4 with VOR,37/45
same,MIC,"[11]; Pichia kudriavzevii, read-out: Cpd 4 MIC",3.1 to 6.3 µg/mL
same,Cpd 4 Conc for 4-fold synergy,[11]; with itraconazole,0.39 µg/mL
same,Cpd 4 Conc for 4-fold synergy,[11]; with ketoconazole,0.39 µg/mL
same,Cpd 4 Conc for 4-fold synergy,[11]; with voriconazole,0.39 µg/mL
same,ITR/Cpd 4 FIC,[12]; Cpd 4 with itraconazole,0.5
same,VOR/Cpd 4 FIC,[12]; Cpd 4 with voriconazole,0.5
same,minimum Compound 4 concentration at which Compound 4 alone inhibited growth (number in brackets),[12]; ITR checkerboard,4.0 µg/mL
same,minimum Compound 4 concentration at which Compound 4 alone inhibited growth (number in brackets),[12]; VOR checkerboard,2.0 µg/mL
same,Conc. Cpd 4 for 4-fold decrease,[13]; 4-fold decrease of nikkomycin MIC,1.563 µg/mL
same,Conc. Cpd 4 for 4-fold decrease,[13]; 4-fold decrease of terbinafine MIC,0.78 µg/mL
same,MIC,"[13]; Candida albicans, ATCC90028, compound alone, C. albicans (ATCC 90028), read-out: MIC80",0.8 µg/mL
same,Cpd 4 Conc for 4-fold synergy,[13]; with itraconazole,0.024 µg/mL
same,Cpd 4 Conc for 4-fold synergy,[13]; with voriconazole,0.39 µg/mL
same,Synergy with Cpd 4 (strains showing synergy/total strains tested) Voriconazole,[14],0/3**
same,Synergy with Cpd 4 (strains showing synergy/total strains tested) Itraconazole,[14]; Coccidioides immitis,2/3
same,MIC,"[14]; Coccidioides immitis, read-out: Cpd 4 MIC",0.25 µg/mL
same,MIC,"[15]; Aspergillus fumigatus, ATCC1022, A. fumigatus (1022), read-out: Cpd 4 MIC",2 to 5 µg/mL
same,Cpd 4 Conc for 4-fold synergy,"[15]; with itraconazole, A. fumigatus (1022)",5 µg/mL
same,Cpd 4 Conc for 4-fold synergy,"[15]; with ketoconazole, A. fumigatus (1022)",2.5 µg/mL
same,conc. for 4-fold synergy,"[15]; with ketoconazole, A. fumigatus ATCC 1022, 48 hours",0.5 µg/mL
same,Cpd 4 Conc for 4-fold synergy,"[15]; with voriconazole, A. fumigatus (1022)",5 µg/mL
same,MIC,"[16]; Lodderomyces parapsilosis, read-out: Cpd 4 MIC",0.39 to 0.78 µg/mL
same,Cpd 4 Conc for 4-fold synergy,[16]; with ketoconazole,0.2 µg/mL
same,Cpd 4 Conc for 4-fold synergy,[16]; with voriconazole,0.049 µg/mL
same,frequency of resistant mutants,[17]; 4× synergistic MIC80 concentrations of Compound 4 and fluconazole,2×10^−7
same,frequency of resistant mutants,[17]; 4× the synergistic MIC80 of Compound 4 and itraconazole,1×10^−7
same,resistant mutants detected,[17]; Compound 4 and itraconazole at 2×MIC,no mutants were detected
same,MIC,"[18]; Trichosporon clinical isolates, read-out: Cpd 4 MIC",0.125 to 0.5 µg/mL
same,Synergy with Cpd 4 (strains showing synergy/total strains tested) Itraconazole,[18]; [28],1/3**
same,Synergy with Cpd 4 (strains showing synergy/total strains tested) Voriconazole,[18]; [28],0/3**
same,Conc. Cpd 4 for 4-fold decrease,[19]; 4-fold reduction of FLU MIC,0.5 µg/mL
same,VOR/Cpd 4 FIC interpretation,[19]; Cpd 4 with voriconazole,(S) (S = synergy)
same,FLU/Cpd 4 FIC,[20]; Cpd 4 with fluconazole,<0.1
same,FLU/Cpd 4 FIC interpretation,[20]; Cpd 4 with fluconazole,(S) (S = synergy)
same,VOR/Cpd 4 FIC interpretation,[20]; Cpd 4 with voriconazole,(S) (S = synergy)
same,minimum Compound 4 concentration at which Compound 4 alone inhibited growth (number in brackets),[20]; VOR checkerboard,4 µg/mL
same,Synergy with Cpd 4 (strains showing synergy/total strains tested) Itraconazole,[21]; Pseudallescheria boydii,0/3
same,Synergy with Cpd 4 (strains showing synergy/total strains tested) Voriconazole,[21]; Pseudallescheria boydii,0/3
same,MIC,"[21]; Scedosporium boydii, Pseudallescheria boydii clinical isolates, read-out: Cpd 4 MIC",2 µg/mL
same,MIC,"[22]; Candida tropicalis, read-out: Cpd 4 MIC",> 50 µg/mL
same,Cpd 4 Conc for 4-fold synergy,[22]; with itraconazole,0.2 µg/mL
same,Cpd 4 Conc for 4-fold synergy,[22]; with ketoconazole,0.2 µg/mL
same,Cpd 4 Conc for 4-fold synergy,[22]; with voriconazole,0.39 µg/mL
same,HDAC inhibition IC50,[23],>20 (20%) μg/ml
same,"HDAC inhibition, per cent in parentheses beside IC50 >20",[23]; concentration not given,>20 (20%)
same,HDAC inhibition IC50,[24],>20 µg/mL
same,MIC,"[25]; Aspergillus fumigatus clinical isolates, read-out: Cpd 4 MIC",4 to 8 µg/mL
same,Synergy with Cpd 4 (strains showing synergy/total strains tested) Itraconazole,"[25]; Aspergillus fumigatus, *Synergy occurs at ½ MIC of Cpd 4",2/3*
same,Synergy with Cpd 4 (strains showing synergy/total strains tested) Voriconazole,"[25]; Aspergillus fumigatus, †2-fold synergy obtained",2/3^†
